# In PMC12069643, “Structural insights into the selective recognition of RF-amide peptides by neuropeptide FF receptor 2” (EMBO Reports, 2025):
# Key:
# human NPFFR1 = target: T1, human NPFFR1 (Homo sapiens, UniProt Q9GZQ6); test: GloSensor forskolin-stimulated cAMP assay, NPFFR1 wild-type; assay type: cell-based; conditions: NPFFR1 wild-type, HEK293T, 0.5 μM forskolin, three independent experiments
# T1 construct: expressed in transfected cells; host or cells: HEK293T (pcDNA3.1 NPFFR1)
# Protocol: Figure 4 RF-amide ligand selectivity of NPFFR2 and NPFFR1. […] Key residues at the fifth and sixth positions from the C-terminus, are highlighted in bold. […] (B) The concentration-dependent response of various agonists on NPFFR1 was measured using a forskolin-stimulated cAMP assay. Data points represent the mean values from three independent experiments (each with technical triplicate), with error bars indicating SEM. Raw data were normalized to the vehicle-treated (0%) and 0.5 μM forskolin-treated (100%) responses. (C) Structural comparison between the binding modes of hNPSF to NPFFR2 and GnIH to NPFFR1. An AlphaFold2 prediction model of the GnIH–NPFFR1 complex was generated using the hNPSF–NPFFR2 complex structure as a template. The hydrophobicity of NPFFRs is shown with surface representation, where purple indicates hydrophilic regions and bronze indicates hydrophobic regions. […] (D) The cAMP response to the ligands hNPSF and GnIH was measured for both wild-type NPFFR1 and a mutant form of NPFFR1 using a forskolin-stimulated cAMP assay. […] Symbols represent mean values from three independent experiments, each conducted in technical triplicates, with error bars indicating SEM. Responses were normalized to vehicle-treated controls (0%) and 0.5 μM forskolin-treated controls (100%). Source data are available online for this figure.
# HEK293T cells were seeded at a density of 6 × 10^5 cells per well in a six-well cell culture plate (SPL) and co-transfected with expression plasmids encoding GloSensor™ and each NPFFR construct, using 1 µg to 4 µg of DNA per well according to the Lipofectamine™ 2000 Transfection Reagent (Invitrogen) protocol. After 48 h of incubation under standard conditions (37 °C, 5% CO2), the cells were detached using Accutase solution (Sigma-Aldrich) and washed with PBS. The cells were then pelleted by centrifugation, resuspended in CO2-independent medium (Gibco) supplemented with Firefly D-Luciferin (0.5 mg/ml, NanoLight), and distributed into a 96-well white plate (SPL). After a 2-hour incubation, serially diluted ligands and 0.5 μM forskolin were added to each well to detect ligand-induced signaling. Luminescence signals were measured using a Mithras LB940 instrument (Berthold) with a measurement time of 1 s per well.
# (§1) Data from the GloSensor^TM cAMP signaling assays were analyzed using GraphPad Prism with a three-parameter logistic model to fit concentration-response curves for both wild-type (WT) and mutant receptors. Mutant expression levels and DNA amounts were adjusted to match WT conditions. ΔpEC50 values were calculated by subtracting the log EC50 of the WT receptor from that of each mutant. Results are presented as mean ± SEM from three independent biological replicates, each performed in duplicate or more. Error bars represent the SEM. Statistical significance was assessed using one-way ANOVA, followed by Dunnett’s tests comparisons to the WT receptor. Significance levels were reported as follows: ns (not significant, P > 0.05); *P < 0.05; **P < 0.01; ***P < 0.001.
# [1] = target: T2, NPFFR1-chimera (Q37^NtL/I293^6.58S/T307^7.31N) (Homo sapiens, UniProt Q9GZQ6, I293S/Q37L/T307N); test: GloSensor forskolin-stimulated cAMP assay, NPFFR1 triple mutant (chimera Q37NtL/I2936.58S/T3077.31N); assay type: cell-based; conditions: HEK293T, 0.5 μM forskolin, three independent experiments
# T2 construct: expressed in transfected cells; host or cells: HEK293T
# Protocol: Figure 4 RF-amide ligand selectivity of NPFFR2 and NPFFR1. (A) Sequence alignment between human NPFFs and RFRPs, the endogenous ligands of NPFFRs, which share PXRF-NH2 motif at their C-terminus (shown in green letters). Key residues at the fifth and sixth positions from the C-terminus, are highlighted in bold. […] (B) The concentration-dependent response of various agonists on NPFFR1 was measured using a forskolin-stimulated cAMP assay. Data points represent the mean values from three independent experiments (each with technical triplicate), with error bars indicating SEM. Raw data were normalized to the vehicle-treated (0%) and 0.5 μM forskolin-treated (100%) responses. (C) Structural comparison between the binding modes of hNPSF to NPFFR2 and GnIH to NPFFR1. An AlphaFold2 prediction model of the GnIH–NPFFR1 complex was generated using the hNPSF–NPFFR2 complex structure as a template. The hydrophobicity of NPFFRs is shown with surface representation, where purple indicates hydrophilic regions and bronze indicates hydrophobic regions. […] (D) The cAMP response to the ligands hNPSF and GnIH was measured for both wild-type NPFFR1 and a mutant form of NPFFR1 using a forskolin-stimulated cAMP assay. […] Symbols represent mean values from three independent experiments, each conducted in technical triplicates, with error bars indicating SEM. Responses were normalized to vehicle-treated controls (0%) and 0.5 μM forskolin-treated controls (100%). Source data are available online for this figure.
# To further validate whether these specific residues in NPFFR1 affect ligand selectivity, we generated a triple mutant of NPFFR1, in which residues Q37^Nt, I293^6.58, and T307^7.31 of NPFFR1 were replaced by the corresponding NPFFR2 residues, Leu, Ser, and Asn, respectively (Appendix Fig. S10). […]
# HEK293T cells were seeded at a density of 6 × 10^5 cells per well in a six-well cell culture plate (SPL) and co-transfected with expression plasmids encoding GloSensor™ and each NPFFR construct, using 1 µg to 4 µg of DNA per well according to the Lipofectamine™ 2000 Transfection Reagent (Invitrogen) protocol. […] Luminescence signals were measured using a Mithras LB940 instrument (Berthold) with a measurement time of 1 s per well.
# as §1, with “Results are presented as mean ± SEM from three independent biological replicates, each performed in duplicate or more. Error bars represent the SEM.” left out, “Significance levels were reported as follows: ns (not significant, P > 0.05); *P < 0.05; **P < 0.01; ***P < 0.001.” left out
# T1 sequence (Q9GZQ6 whole entry): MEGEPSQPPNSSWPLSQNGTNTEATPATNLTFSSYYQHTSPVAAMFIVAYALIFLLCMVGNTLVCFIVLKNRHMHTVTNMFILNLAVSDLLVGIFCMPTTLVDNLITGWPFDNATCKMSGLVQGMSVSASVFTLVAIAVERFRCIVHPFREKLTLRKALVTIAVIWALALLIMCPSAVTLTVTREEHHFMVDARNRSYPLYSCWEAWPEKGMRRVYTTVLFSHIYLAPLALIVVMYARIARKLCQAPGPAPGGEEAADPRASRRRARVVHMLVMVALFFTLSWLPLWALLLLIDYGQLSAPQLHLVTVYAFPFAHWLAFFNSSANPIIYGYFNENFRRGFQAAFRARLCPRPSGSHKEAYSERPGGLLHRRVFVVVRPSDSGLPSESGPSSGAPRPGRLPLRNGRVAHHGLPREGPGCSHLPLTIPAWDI
# T2 sequence (Q9GZQ6 whole entry Q37L/I293S/T307N): as the sequence (Q9GZQ6 whole entry) above, with Q37L, I293S, T307N counted along it
smiles,measurement,setting,value
CC(C)C[C@H](NC(=O)[C@H](Cc1ccccc1)NC(=O)[C@H](C)NC(=O)[C@H](CCC(N)=O)NC(=O)[C@@H](N)CO)C(=O)N[C@@H](Cc1ccccc1)C(=O)N[C@@H](CCC(N)=O)C(=O)N1CCC[C@H]1C(=O)N[C@@H](CCC(N)=O)C(=O)N[C@@H](CCCNC(=N)N)C(=O)N[C@@H](Cc1ccccc1)C(N)=O [hNPSF],Emax,"human NPFFR1; HEK-293T, read-out: Emax ± SEM",83 ± 1%
same,EC50,human NPFFR1; read-out: pEC50 ± SEM (converted),79.4 nM
same,EC50,[1],31.6 nM
same,Emax,[1]; HEK-293T,78 ± 2%
